# Assay results taken from article PMC6312359, “Diisopropylphenyl-imidazole (DII): A new compound that exerts anthelmintic activity through novel molecular mechanisms” (PLoS Neglected Tropical Diseases, 2018).
# Where “and” joins values, the source holds several entries; their conditions need not be identical. Equal values may be shown once.
# Columns and labels:
# C. elegans [1] = experiment: Acute paralysis assays; format: in vivo, Caenorhabditis elegans; settings: 10 min
# Protocol: Acute paralysis assays were carried out in microtiter plates containing the drug dissolved in M9 buffer. […] Each drug concentration was tested in two wells (containing 30 animals each) within a single experiment. […] The experiment was independently repeated at least three times.
# Drosophila melanogaster = Drosophila melanogaster larval viability; format: in vivo; settings: 300–1200 μM in food, about 40 h of exposure
# Protocol: All experiments were done at 25°C, under a 12:12 dark:light cycle using the w^1118 strain. Mated females were allowed to lay eggs for 4 h on apple juice egg laying plates supplemented with a thin layer of normal fly food. 2 h after the initiation of egg laying was considered time "0". 30–40 late L2 larvae (66 h after egg laying) were transferred from the plates to tubes containing 3 ml of fly food with 300, 600 and 1200 μM DII or the corresponding concentration of dimethylsulfoxide (DMSO, molecular biology grade, AppliChem). Under these conditions, larvae were exposed to DII until they left the food to pupariate about 40 h later. Larval viability was calculated as the percentage of larvae that reached the pupal stage.
# To add drugs, fly food was melted and cooled to 60°C, 3 ml of food were dispensed in tubes and an appropriate volume of DMSO or drug was added and thoroughly mixed. Control tubes without DMSO and […] were prepared following the same procedure. The experiment was independently repeated at least three times.
# [2] = test system: Escherichia coli ATCC 25922; experiment: Minimum inhibitory and bactericidal concentrations, microdilution; format: cell-based; settings: 24 h at 37°C
# Protocol: (§1) The strains used in this study were Escherichia coli ATCC 25922 and Staphylococcus aureus ATCC 25923, kindly provided by Dr. Ziegler (Bacillus Genetic Stock Center, The Ohio State University). Stocks were stored in Mueller Hinton Broth (MHB, Biokar Diagnostics, France) supplemented with glycerol 20% at -70°C. Before running each test, the strains were incubated for 48 h at 37°C in MHB. Finally, the bacterial strains were sub-cultured in MHB at 37°C for 24 h. The solutions of antimicrobial agents and imidazolium salts were prepared following the Clinical and Laboratory Standards Institute (CLSI) guidelines for determination of Minimum Inhibitory Concentrations by the microdilution method (CLSI 2009). […] Cultures were incubated as described above and adjusted to OD625nm ~ 0.08–0.13 by the direct colony suspension method in saline water and finally adjusted to 2–8 10^5 CFU/ml by diluting 1:150 in MHB before testing. A volume of 100 μl of each sample dilution in saline water was transferred to the microplate well. Finally, an equal volume of the inoculum was added. The MIC was the lowest concentration at which there was no visible growth when compared with controls after 24 h at 37°C. To assess the minimum bactericidal concentration (MBC), 20 μl aliquots were taken from the wells where no visible growth was observed, seeded on petri dishes and covered with MH agar (MHA) at 45°C. The compounds were considered bactericidal at the concentration at which no visible colony was observed on the plate after 24 h at 37°C. All conditions were run at least in duplicate. The results were obtained from at least 3 independent experiments.
# [3] = test system: Staphylococcus aureus ATCC 25923; experiment: as above; format: cell-based; settings: ATCC25923, 24 h at 37°C
# Protocol: as §1
# C. elegans [4] = experiment: Recovery assays; format: in vivo, Caenorhabditis elegans; settings: 600 μM, 4 and 8 h of exposure, scored 24 h later
# Protocol: To evaluate the recovery capacity of worms treated with DII, ~100 L4 worms were transferred to NGM plates containing DII (600 μM). After 4 and 8 h of exposure, those animals that survived were transferred to regular NGM plates. Worm viability was scored 24 h later. Results are expressed as the percentage of alive animals 24 h after being transferred to regular NGM plates. The experiment was independently repeated three times.
# C. elegans [5] = experiment: Screening imidazole compounds: worm survival; format: in vivo, Caenorhabditis elegans; settings: 150 μg/ml, 72 h, 20°C, young adult wild-type worms, liquid medium (S-Basal) with E. coli OP50
# Protocol: 100–150 young adult wild-type worms were exposed to these compounds (150 μg/ml) in liquid medium (S-Basal) containing E. coli OP50. Micromolar concentrations for each compound are: 487 μM for 1, 428 μM for 2, 410 μM for 3, 375 μM for 4, 789 μM for 5, 735 μM for 6, 389 μM for 7, 319 μM for 8, 263 μM for 9, 806 μM for 10 and 657 μM for 11. Compounds were dissolved in water or DMSO according to their solubility. After 72 h, animal survival was analyzed. An animal was considered dead if it made no movement in response to gentle prodding with a worm pick. At least three independent experiments were analyzed.
# We exposed 100–150 young adult worms to these compounds in liquid medium (S-Basal) containing the bacteria E. coli OP50 as a food source. After 72 h at 20°C, we analyzed worm survival (Fig 1B). […] The drug concentration chosen for this screening was 150 μg/ml, which is similar to those used in other screening studies. The corresponding molar concentration for each compound is detailed in Materials and Methods. Depending on their solubility properties, the compounds were dissolved either in water or DMSO (up to 0.75% final concentration).
structure (smiles),measurement,setting,value
CC(C)c1cccc(C(C)C)c1-n1ccnc1 [Compound 11],paralysis in CB407 unc-49(e407)III hypersensitive strain,C. elegans [1]; 100 μM,no paralyzing effects
same,immobilized animals,C. elegans [1]; 800 μM (highest concentration tested),25%
same,change of the dose-effect curve of levamisole by DII,"C. elegans [1]; DII 100 and 200 μM, intact animals",no significant changes
same,larval viability (larvae that reached the pupal stage),Drosophila melanogaster,does not affect Drosophila larval viability
same,MIC E. coli,[2]; listed as DII (11),256 µg/mL
same,MBC,"[2]; Escherichia coli, ATCC25922",> 256 µg/mL
same,MIC,"[2]; Escherichia coli, ATCC25922",256 µg/mL and 1110 µM
same,MBC,[3]; read-out: MBC S. aureus,> 256 µg/mL
same,MIC,[3]; read-out: MIC S. aureus,256 µg/mL
same,recovery of survivors after transfer to regular NGM plates,C. elegans [4],reversible
same,worm death,C. elegans [5],100%
